Literature values as cited in patent publication US4873075A, “Polyiodinated triglyceride analogs as radiologic agents” (The University of Michigan, priority 1985, dated 1989).

Tested on: liver
Details: background statement

## tetraiodotetrachlorofluorescein [^131 I-Rose Bengal]
  hepatic to intestinal output: slow rate of hepatic to intestinal output
